Measurements published in patent publication US20200222474A1, “COMPOSITIONS AND METHODS FOR INCREASING PHYTOCHEMICAL BIOAVAILABLITY AND BIOACTIVITY” (North Carolina State University, priority 2017, published 2020).

How the values were obtained:
NCK2424 (ΔLBA0726) = assay: Phenotypic growth analysis of deletion mutant (phospho-β-glucosidase); format: cell-based, Lactobacillus acidophilus; details: compared with background Δupp strain
Description: (§1) Phenotypic growth assays were performed using 1% (v/v) overnight cultures of L. acidophilus strains (Table 2) and other Lactobacillus species (Table 3) grown on SDM supplemented with 1% (w/v) glucose to inoculate 200 μL of SDM supplemented with 1% (w/v) of the examined carbohydrate (0.5% in the case of esculin) in 96-well microplate wells (Corning Costar, Corning, N.Y., USA) in duplicate or triplicate wells, respectively. The microplates were sealed with clear adhesive film, incubated at 37° C. in a Fluostar Optima microplate reader (BMG Labtech, Cary, N.C., USA), and the cell optical density (OD600) was monitored for 30 hours.
Construction of gene deletion mutants. The L. acidophilus NCFM genes LBA0225 and LBA0726, both encoding P-Bgl of glycoside hydrolase family 1 (GH1) enzymes in addition to the LBA0227 and LBA0725 genes encoding an EIIC and an EIICBA components of two PTS systems, respectively, were deleted using the upp-based counterselectable gene replacement system. Briefly, in-frame deletions were constructed by amplifying 650-750 bp of the up- and downstream flanking regions of the deletion targets with two primer pairs (e.g., LBA0225A/LBA0225B and LBA0225C/LBA0225D; Table 4). The resulting purified products were joined by splicing using overlap extension PCR (SOE-PCR63) and amplified to establish the deletion alleles. The SOE-PCR products, that include flanking restriction enzyme sites, were cloned within the BamHI and SacI/EcoRI sites of the pTRK935 integration vector and transformed into E. coli EC101. […]
To establish the functional significance of these two loci, single deletions of each PTS EII and P-Bgl gene, and a double deletion of both P-Bgl genes were constructed using the upp-based counter-selectable gene replacement system (Table 2) and the growth phenotypes of the mutant strains were analyzed (FIG. 3). […]

L. fermentum ATCC 14931 = assay: Phenotypic growth assay (OD600); format: cell-based; details: SDM + 1% (w/v) carbohydrate (0.5% esculin), 37° C., 30 hours; corrected to medium without carbohydrate
Description: as §1

[1] = test system: L. reuteri (ATCC 23272, DSM 20016); assay: Phenotypic growth assay (OD600); format: cell-based; details: SDM + 1% (w/v) carbohydrate (0.5% esculin), 37° C., 30 hours; corrected to medium without carbohydrate
Description: as §1

L. acidophilus LA-1 = assay: Phenotypic growth assay (OD600); format: cell-based; details: SDM + 1% (w/v) carbohydrate (0.5% esculin), 37° C., 30 hours; corrected to medium without carbohydrate
Description: as §1

[2] = test system: L. jensenii ATCC 25258, 62G, DSM 20557; assay: Phenotypic growth assay (OD600); format: cell-based; details: SDM + 1% (w/v) carbohydrate (0.5% esculin), 37° C., 30 hours; corrected to medium without carbohydrate
Description: as §1

[3] = test system: L. plantarum sp. plantarum ATCC 14917, LA70; assay: Phenotypic growth assay (OD600); format: cell-based; details: SDM + 1% (w/v) carbohydrate (0.5% esculin), 37° C., 30 hours; corrected to medium without carbohydrate
Description: as §1

L. helveticus CNRZ32 = assay: Phenotypic growth assay (OD600); format: cell-based; details: SDM + 1% (w/v) carbohydrate (0.5% esculin), 37° C., 30 hours; corrected to medium without carbohydrate
Description: as §1

L. johnsonii ATCC 33200 = assay: Phenotypic growth assay (OD600); format: cell-based; details: SDM + 1% (w/v) carbohydrate (0.5% esculin), 37° C., 30 hours; corrected to medium without carbohydrate
Description: as §1

[4] = test system: L. amyloverus ATCC 33620, DSM 20531; assay: Phenotypic growth assay (OD600); format: cell-based; details: SDM + 1% (w/v) carbohydrate (0.5% esculin), 37° C., 30 hours; corrected to medium without carbohydrate
Description: as §1

L. gasseri ATCC 33323 = assay: Phenotypic growth assay (OD600); format: cell-based; details: SDM + 1% (w/v) carbohydrate (0.5% esculin), 37° C., 30 hours; corrected to medium without carbohydrate
Description: as §1

[5] = test system: L. intestinalis Th4, ATCC 49335, DSM 6629; assay: Phenotypic growth assay (OD600); format: cell-based; details: SDM + 1% (w/v) carbohydrate (0.5% esculin), 37° C., 30 hours; corrected to medium without carbohydrate
Description: as §1

L. animalis DSM 20602 = assay: Phenotypic growth assay (OD600); format: cell-based; details: SDM + 1% (w/v) carbohydrate (0.5% esculin), 37° C., 30 hours; corrected to medium without carbohydrate
Description: as §1

[6] = test system: L. rhanmosus GG (ATCC 53103); assay: Phenotypic growth assay (OD600); format: cell-based; details: SDM + 1% (w/v) carbohydrate (0.5% esculin), 37° C., 30 hours; corrected to medium without carbohydrate
Description: as §1

[7] = test system: L. crispatus ATCC 33820, DSM 20584; assay: Phenotypic growth assay (OD600); format: cell-based; details: SDM + 1% (w/v) carbohydrate (0.5% esculin), 37° C., 30 hours; corrected to medium without carbohydrate
Description: as §1

L. acidophilus NCFM = assay: Growth of L. acidophilus NCFM on plant glycosides as single carbon source (OD600); format: cell-based, Lactobacillus acidophilus; details: SDM + 1% (w/v) carbohydrate (0.5% esculin), 37° C., 30 hours; corrected to medium without carbohydrate
Description: For initial growth and gene expression studies, L. acidophilus NCFM was propagated three times in semi-defined medium (SDM) supplemented with either 1% or 0,5% (w/v) of the plant glycoside or carbohydrate (Table 1). For the RNA-seq analysis, cells were harvested by centrifugation (3,220×10 min, 25° C.) in the mid-exponential phase (OD600=0.6-0.8) and stored at −80° C. for subsequent RNA isolation. For the mass spectrometry metabolite analyses, 200 μt samples were taken at 0, 3, 6, 9, 12, and 24 hours of growth; cells were removed by centrifugation; and supernatants were stored at −80° C. for further analysis.
as §1
The growth of L. acidophilus NCFM was evaluated on twelve chemically diverse, nutritionally relevant and/or therapeutically active PGs 1; Table 1). FIG. 1A provides the structures and common sources of plant glycoside substrates described herein. The compounds that support growth of Lactobacillus acidophilus are in green. RI: β-D-Glcp; R2: Gentiobioside (β-D-Glcp-(1,6)-D-Glcp); R3: Rutinoside (α-L-Rhaf-(1,6)-D-Glcp). The graph in FIG. 1B depicts plant glycoside utilization analyzed by mass spectrometry and the growth as the maximum OD600. Due to the low solubility of polydatin, OD600 cannot be used as a growth metric and utilization of this compound is confirmed by the production of lactate as well as a high utilization level based on the metabolite analysis.

NCK2422 (ΔLBA0725) = assay: Phenotypic growth analysis of deletion mutant (PTS EIICBA); format: cell-based, Lactobacillus acidophilus
Description: as §1
Construction of gene deletion mutants. The L. acidophilus NCFM genes LBA0225 and LBA0726, both encoding P-Bgl of glycoside hydrolase family 1 (GH1) enzymes in addition to the LBA0227 and LBA0725 genes encoding an EIIC and an EIICBA components of two PTS systems, respectively, were deleted using the upp-based counterselectable gene replacement system. Briefly, in-frame deletions were constructed by amplifying 650-750 bp of the up- and downstream flanking regions of the deletion targets with two primer pairs (e.g., LBA0225A/LBA0225B and LBA0225C/LBA0225D; Table 4). The resulting purified products were joined by splicing using overlap extension PCR (SOE-PCR63) and amplified to establish the deletion alleles. The SOE-PCR products, that include flanking restriction enzyme sites, were cloned within the BamHI and SacI/EcoRI sites of the pTRK935 integration vector and transformed into E. coli EC101. The resulting recombinant plasmids (pTRK1113-6) were confirmed by DNA sequencing and electroporated into L. acidophilus NCK1910 (Table 2) that contains the pTRK669 helper plasmid, and the recovery of the single- and double-crossover recombinants was performed as previously described. Recombinants carrying the new gene deletion alleles were isolated by colony PCR using primer pairs denoted up/down (e.g., LBA0225up/LBA0225down), which anneal to the flanking regions of the amplicons. Sequence integrity and in-frame deletions were verified by DNA sequencing employing the aforementioned primer pairs and primer denoted mid (e.g., LBA0225mid). The mutations were in-frame deletions of 90-96% of the coding regions.
To establish the functional significance of these two loci, single deletions of each PTS EII and P-Bgl gene, and a double deletion of both P-Bgl genes were constructed using the upp-based counter-selectable gene replacement system (Table 2) and the growth phenotypes of the mutant strains were analyzed (FIG. 3). Phenotypic growth analyses of deletion mutants of EII PTS transporters (FIGS. 3A, 3C, 3E, 3G, and 3I) and phospho-β-glucosidase (FIGS. 3B, 3D, 3F, 3H, and 3J) on the β-glucosides esculin, salicin, amygdalin and the disaccharides gentiobiose and cellobiose. The background Aupp strain is shown as a grey fill graph and the growth of the mutant strains is shown as: PTS EIIC (LBA0227, pink triangle), the phospho-β-glucosidase (LBA0225, light blue triangles), the PTS EIICBA (LBA0725, yellow squares), the second phospho-β-glucosidase (LBA0726, lilac squares) and the double phospho-β-glucosidase mutant (LBA0225/LBA0726, black stars). The color scheme is consistent with that used for the gene loci in FIG. 2.

## O=C[C@H](O)[C@@H](O)[C@H](O[C@@H]1O[C@H](CO)[C@@H](O)[C@H](O)[C@H]1O)[C@H](O)CO [Cellobiose, reference compound]
NCK2424 (ΔLBA0726)
  growth of the ΔLBA0726 mutant (P-Bgl): unaffected
L. fermentum ATCC 14931
  Growth (OD600 max class) of L. fermentum ATCC 14931: − (“−” signifies OD600 max < 0.1.)
[1]
  Growth (OD600 max class) of L. reuteri (ATCC 23272, DSM 20016): − (“−” signifies OD600 max < 0.1.)
L. acidophilus LA-1
  Growth (OD600 max class) of L. acidophilus LA-1: +++ (“+++” signifies OD600 max > 0.6.)
[2]
  Growth (OD600 max class) of L. jensenii ATCC 25258, 62G, DSM 20557: ++ (“++” signifies 0.6 > OD600 max > 0.3.)
[3]
  Growth (OD600 max class) of L. plantarum sp. plantarum ATCC 14917, LA70: +++ (“+++” signifies OD600 max > 0.6.)
L. helveticus CNRZ32
  Growth (OD600 max class) of L. helveticus CNRZ32: + (“+” signifies 0.3 > OD600 max > 0.1.)
L. johnsonii ATCC 33200
  Growth (OD600 max class) of L. johnsonii ATCC 33200: + (“+” signifies 0.3 > OD600 max > 0.1.)
[4]
  Growth (OD600 max class) of L. amyloverus ATCC 33620, DSM 20531: +++ (“+++” signifies OD600 max > 0.6.)
L. gasseri ATCC 33323
  Growth (OD600 max class) of L. gasseri ATCC 33323: ++ (“++” signifies 0.6 > OD600 max > 0.3.)
[5]
  Growth (OD600 max class) of L. intestinalis Th4, ATCC 49335, DSM 6629: − (“−” signifies OD600 max < 0.1.)
L. animalis DSM 20602
  Growth (OD600 max class) of L. animalis DSM 20602: + (“+” signifies 0.3 > OD600 max > 0.1.)
[6]
  Growth (OD600 max class) of L. rhanmosus GG (ATCC 53103): +++ (“+++” signifies OD600 max > 0.6.)
[7]
  Growth (OD600 max class) of L. crispatus ATCC 33820, DSM 20584: − (“−” signifies OD600 max < 0.1.)
L. acidophilus NCFM
  Growth (OD600 max class) of L. acidophilus NCFM: ++ (“++” signifies 0.6 > OD600 max > 0.3.)
NCK2422 (ΔLBA0725)
  reduction of growth on inactivation of the EIICBA (LBA0725): about 50%
NCK2422 (ΔLBA0725); compared with background Δupp strain
  growth of the ΔLBA0725 mutant (inactive PTS EIICBA): moderately reduced
